# Source: the supplement of paper PMC10307832
# Assays:
# Test in all cases: relative viability (nuclei count vs DMSO), 5 days (fraction); higher = more cells survive
# NCI-H441 = tested on: NCI-H441
# Procedure, shortened: (§1)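 For relative viability, nuclei counts in treated wells were divided by those in vehicle wells. Lung cancer cell lines had been pin-tool dosed in 1536-well plates the day after seeding and cultured for 5 days, then fixed and stained in one step (final 0.05% Triton X-100, 1% formaldehyde, 1 ug/ml Hoechst) and imaged at 4×. Doses were one drug alone or a fixed anchor-drug dose plus five library-drug doses (not always all listed) in √10 steps, and values are duplicate-plate medians.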
# NCI-H650 = tested on: NCI-H650
# Procedure, shortened: as §1
# NCI-H23 = tested on: NCI-H23
# Procedure, shortened: as §1
# RERF-LC-KJ = tested on: RERF-LC-KJ
# Procedure, shortened: as §1
# NCI-H1355 = tested on: NCI-H1355
# Procedure, shortened: as §1
# NCI-H2009 = tested on: NCI-H2009
# Procedure, shortened: as §1
# LCLC-97TM1 = tested on: LCLC-97TM1
# Procedure, shortened: as §1
# NCI-H2023 = tested on: NCI-H2023
# Procedure, shortened: as §1
# NCI-H322M = tested on: NCI-H322M
# Procedure, shortened: as §1
# HOP-62 = tested on: HOP-62
# Procedure, shortened: as §1
# NCI-H1437 = tested on: NCI-H1437
# Procedure, shortened: as §1
# NCI-H2085 = tested on: NCI-H2085
# Procedure, shortened: as §1
# UMC-11 = tested on: UMC-11
# Procedure, shortened: as §1
# NCI-H1755 = tested on: NCI-H1755
# Procedure, shortened: as §1
# ChaGo-K-1 = tested on: ChaGo-K-1
# Procedure, shortened: as §1
# LOU-NH91 = tested on: LOU-NH91
# Procedure, shortened: as §1
# HCC-78 = tested on: HCC-78
# Procedure, shortened: as §1
# NCI-H2405 = tested on: NCI-H2405
# Procedure, shortened: as §1
# NCI-H2170 = tested on: NCI-H2170
# Procedure, shortened: as §1
# SK-MES-1 = tested on: SK-MES-1
# Procedure, shortened: as §1
# NCI-H1792 = tested on: NCI-H1792
# Procedure, shortened: as §1
smiles,measurement,setting,value
O=c1[nH]c2ccccc2n1C1CCN(CCCC(c2ccc(F)cc2)c2ccc(F)cc2)CC1 [Pimozide] + Nc1nc2[nH]cc(CCc3ccc(C(=O)N[C@@H](CCC(=O)O)C(=O)O)cc3)c2c(=O)[nH]1 [Pemetrexed] (partner 0.2 µM),relative viability,NCI-H441; first compound 0.08 µM,0.27
same,relative viability,NCI-H441; first compound 0.253 µM,0.314
same,relative viability,NCI-H441; first compound 0.8 µM,0.276
same,relative viability,NCI-H441; first compound 2.53 µM,0.265
same,relative viability,NCI-H441; first compound 8 µM,0.238
same,relative viability,NCI-H650; first compound 0.08 µM,0.939
same,relative viability,NCI-H650; first compound 0.253 µM,0.936
same,relative viability,NCI-H650; first compound 0.8 µM,0.793
same,relative viability,NCI-H650; first compound 2.53 µM,0.914
same,relative viability,NCI-H650; first compound 8 µM,1.02
same,relative viability,NCI-H23; first compound 0.08 µM,0.64
same,relative viability,NCI-H23; first compound 0.253 µM,0.716
same,relative viability,NCI-H23; first compound 0.8 µM,0.609
same,relative viability,NCI-H23; first compound 2.53 µM,0.59
same,relative viability,NCI-H23; first compound 8 µM,0.591
same,relative viability,RERF-LC-KJ; first compound 0.08 µM,0.452
same,relative viability,RERF-LC-KJ; first compound 0.253 µM,0.47
same,relative viability,RERF-LC-KJ; first compound 0.8 µM,0.466
same,relative viability,RERF-LC-KJ; first compound 2.53 µM,0.347
same,relative viability,RERF-LC-KJ; first compound 8 µM,0.422
same,relative viability,NCI-H1355; first compound 0.08 µM,1.07
same,relative viability,NCI-H1355; first compound 0.253 µM,1.01
same,relative viability,NCI-H1355; first compound 0.8 µM,0.878
same,relative viability,NCI-H1355; first compound 2.53 µM,1.03
same,relative viability,NCI-H1355; first compound 8 µM,1.01
same,relative viability,NCI-H2009; first compound 0.08 µM,1.07
same,relative viability,NCI-H2009; first compound 0.253 µM,1
same,relative viability,NCI-H2009; first compound 0.8 µM,0.975
same,relative viability,NCI-H2009; first compound 2.53 µM,0.963
same,relative viability,NCI-H2009; first compound 8 µM,0.973
same,relative viability,LCLC-97TM1; first compound 0.08 µM,0.2
same,relative viability,LCLC-97TM1; first compound 0.253 µM,0.177
same,relative viability,LCLC-97TM1; first compound 0.8 µM,0.19
same,relative viability,LCLC-97TM1; first compound 2.53 µM,0.18
same,relative viability,LCLC-97TM1; first compound 8 µM,0.156
same,relative viability,NCI-H2023; first compound 0.08 µM,0.215
same,relative viability,NCI-H2023; first compound 0.253 µM,0.231
same,relative viability,NCI-H2023; first compound 0.8 µM,0.226
same,relative viability,NCI-H2023; first compound 2.53 µM,0.179
same,relative viability,NCI-H2023; first compound 8 µM,0.164
same,relative viability,NCI-H322M; first compound 0.08 µM,0.571
same,relative viability,NCI-H322M; first compound 0.253 µM,0.668
same,relative viability,NCI-H322M; first compound 0.8 µM,0.622
same,relative viability,NCI-H322M; first compound 2.53 µM,0.604
same,relative viability,NCI-H322M; first compound 8 µM,0.609
same,relative viability,HOP-62; first compound 0.08 µM,0.275
same,relative viability,HOP-62; first compound 0.253 µM,0.362
same,relative viability,HOP-62; first compound 2.53 µM,0.283
same,relative viability,HOP-62; first compound 8 µM,0.284
same,relative viability,NCI-H1437; first compound 0.08 µM,0.354
same,relative viability,NCI-H1437; first compound 0.253 µM,0.306
same,relative viability,NCI-H1437; first compound 0.8 µM,0.274
same,relative viability,NCI-H1437; first compound 2.53 µM,0.312
same,relative viability,NCI-H1437; first compound 8 µM,0.219
same,relative viability,NCI-H2085; first compound 0.08 µM,0.812
same,relative viability,NCI-H2085; first compound 0.253 µM,1.01
same,relative viability,NCI-H2085; first compound 0.8 µM,0.745
same,relative viability,NCI-H2085; first compound 2.53 µM,0.938
same,relative viability,NCI-H2085; first compound 8 µM,0.735
same,relative viability,UMC-11; first compound 0.08 µM,0.82
same,relative viability,UMC-11; first compound 0.253 µM,0.681
same,relative viability,UMC-11; first compound 0.8 µM,0.748
same,relative viability,UMC-11; first compound 2.53 µM,0.772
same,relative viability,UMC-11; first compound 8 µM,0.725
same,relative viability,NCI-H1755; first compound 0.08 µM,0.707
same,relative viability,NCI-H1755; first compound 0.253 µM,0.423
same,relative viability,NCI-H1755; first compound 0.8 µM,0.516
same,relative viability,NCI-H1755; first compound 2.53 µM,0.389
same,relative viability,NCI-H1755; first compound 8 µM,0.393
same,relative viability,ChaGo-K-1; first compound 0.08 µM,0.248
same,relative viability,ChaGo-K-1; first compound 0.253 µM,0.277
same,relative viability,ChaGo-K-1; first compound 0.8 µM,0.245
same,relative viability,ChaGo-K-1; first compound 2.53 µM,0.267
same,relative viability,ChaGo-K-1; first compound 8 µM,0.254
same,relative viability,LOU-NH91; first compound 0.08 µM,0.389
same,relative viability,LOU-NH91; first compound 0.253 µM,0.474
same,relative viability,LOU-NH91; first compound 0.8 µM,0.395
same,relative viability,LOU-NH91; first compound 2.53 µM,0.384
same,relative viability,LOU-NH91; first compound 8 µM,0.384
same,relative viability,HCC-78; first compound 0.08 µM,0.911
same,relative viability,HCC-78; first compound 0.8 µM,0.91
same,relative viability,HCC-78; first compound 2.53 µM,0.872
same,relative viability,HCC-78; first compound 8 µM,0.87
same,relative viability,NCI-H2405; first compound 0.08 µM,0.968
same,relative viability,NCI-H2405; first compound 0.253 µM,1.09
same,relative viability,NCI-H2405; first compound 0.8 µM,1.05
same,relative viability,NCI-H2405; first compound 2.53 µM,0.989
same,relative viability,NCI-H2405; first compound 8 µM,0.88
same,relative viability,NCI-H2170; first compound 0.08 µM,0.273
same,relative viability,NCI-H2170; first compound 0.253 µM,0.242
same,relative viability,NCI-H2170; first compound 0.8 µM,0.263
same,relative viability,NCI-H2170; first compound 2.53 µM,0.258
same,relative viability,NCI-H2170; first compound 8 µM,0.258
same,relative viability,SK-MES-1; first compound 0.08 µM,0.982
same,relative viability,SK-MES-1; first compound 0.253 µM,0.861
same,relative viability,SK-MES-1; first compound 0.8 µM,0.919
same,relative viability,SK-MES-1; first compound 2.53 µM,0.888
same,relative viability,SK-MES-1; first compound 8 µM,0.902
same,relative viability,NCI-H1792; first compound 0.08 µM,0.822
same,relative viability,NCI-H1792; first compound 0.253 µM,0.786
same,relative viability,NCI-H1792; first compound 0.8 µM,0.43
same,relative viability,NCI-H1792; first compound 2.53 µM,0.727
same,relative viability,NCI-H1792; first compound 8 µM,0.356
